Reference: patent US20260285816A1, “Piperazinyl-Modified Quinazolinyl-Aryl Urea Derivative, And Preparation Method And Use Thereof” (Guangxi Normal University, priority 2025, published 2026)

What was measured:
Assay type in all cases: cell-based, human
[1] = test system: PANC-1 cells; assay: CCK-8 anti-proliferative assay, PANC-1; conditions: Homo sapiens, PANC-1; Table 7; co-incubated 48 h; read-out: Anti-proliferative activity (IC50 ± standard deviation) PANC-1
Text: (§1) The obtained quinazolinyl-aryl urea derivatives were screened for compounds with optimal activity using the following method. All cell lines employed in this experiment were of human origin, including: bladder cancer cells: J82, UM-UC-3, T24, 5637, pancreatic cancer cells: BxPC-3, PANC-1, osteosarcoma cells: 143B, MG-63, cervical cancer cells: HeLa, breast cancer cells: MCF-7, NSCLC cells: A549, hepatoblastoma cells: Hep G2, and ovarian cancer cells: SK-OV-3, as well as normal cell lines: immortalized ureteral epithelial cells (SV-HUC-1), embryonic lung fibroblasts (WI-38).
(§2) Experimental Procedure for Anti-Proliferative Activity Evaluation: The CCK-8 assay was employed. Cells in logarithmic growth phase were harvested, adjusted to appropriate density, and uniformly seeded into 96-well plates using a multichannel pipette (180 μL cell suspension containing complete medium per well, 5,000 cells/well). Blank control wells (containing basal medium, CCK-8 solution, and DMSO only) were set. Cells were incubated at 37° C. under 5% CO2. After 70% confluency was reached, test compounds (target compounds/positive controls) were added at final concentrations of 1, 2, 4, 6, 8, 12, 16, 24, and 30 μM (3 repeated wells per concentration). Compounds were pre-dissolved in DMSO, sterilized, and diluted with medium before adding 20 μL/well. After co-incubation for designated durations, 10 μL CCK-8 solution was added per well followed by 1-4 h incubation (different cells have different incubation times). The reaction was terminated, and OD (optical density) values at 450 nm were measured using a microplate reader. Inhibition rates were calculated as: (ODcontrol−ODtreatment)/ODcontrol×100%. Median inhibitory concentrations (IC50 values) were derived using Origin v8.0 software.

[2] = test system: Hep G2 cells; assay: CCK-8 anti-proliferative assay, Hep G2; conditions: Homo sapiens, HepG2; Table 8; co-incubated 48 h; read-out: Anti-proliferative activity (IC50 ± standard deviation) Hep G2
Text: as §1, §2

[3] = test system: BxPC-3 cells; assay: CCK-8 anti-proliferative assay, BxPC-3; conditions: Homo sapiens, BXPC-3; Table 7; co-incubated 48 h; read-out: Anti-proliferative activity (IC50 ± standard deviation) BxPC-3
Text: as §1, §2

[4] = test system: 5637 cells; assay: CCK-8 anti-proliferative assay, 5637; conditions: Homo sapiens; Table 6; co-incubated 48 h; read-out: Anti-proliferative activity (IC50 ± standard deviation) 5637
Description: (§3) The obtained quinazolinyl-aryl urea derivatives were screened for compounds with optimal activity using the following method.
as §2, with “The reaction was terminated, and OD (optical density) values at 450 nm were measured using a microplate reader.” left out

[5] = test system: A549 cells; assay: CCK-8 anti-proliferative assay, A549; conditions: Homo sapiens, A549; Table 8; co-incubated 48 h; read-out: Anti-proliferative activity (IC50 ± standard deviation) A549
Description: as §3
as §2, with “The reaction was terminated, and OD (optical density) values at 450 nm were measured using a microplate reader.” left out

[6] = test system: MCF-7 cells; assay: CCK-8 anti-proliferative assay, MCF-7; conditions: Homo sapiens, MCF7; Table 8; co-incubated 48 h; read-out: Anti-proliferative activity (IC50 ± standard deviation) MCF-7
Description: as §3
as §2, with “The reaction was terminated, and OD (optical density) values at 450 nm were measured using a microplate reader.” left out

[7] = test system: HeLa cells; assay: CCK-8 anti-proliferative assay, HeLa; conditions: Homo sapiens, HeLa; Table 8; co-incubated 48 h; read-out: Anti-proliferative activity (IC50 ± standard deviation) HeLa
Description: as §3
as §2, with “The reaction was terminated, and OD (optical density) values at 450 nm were measured using a microplate reader.” left out

[8] = test system: MG-63 cells; assay: CCK-8 anti-proliferative assay, MG-63; conditions: Homo sapiens, MG-63; Table 7; co-incubated 48 h; read-out: Anti-proliferative activity (IC50 ± standard deviation) MG-63
Text: as §1, §2

[9] = test system: 143B cells; assay: CCK-8 anti-proliferative assay, 143B; conditions: Homo sapiens, 143B; Table 7; co-incubated 48 h; read-out: Anti-proliferative activity (IC50 ± standard deviation) 143B
Text: as §1, §2

[10] = test system: J82 cells; assay: CCK-8 anti-proliferative assay, J82; conditions: Homo sapiens, J82; Table 6; co-incubated 48 h; read-out: Anti-proliferative activity (IC50 ± standard deviation) J82
Description: as §3
as §2, with “The reaction was terminated, and OD (optical density) values at 450 nm were measured using a microplate reader.” left out

[11] = test system: embryonic lung fibroblasts (WI-38); assay: CCK-8 anti-proliferative assay, normal cells WI-38; conditions: Homo sapiens, WI-38, Table 9, co-incubated 48 h, read-out: Anti-proliferative activity (IC50 ± standard deviation) WI-38
Text: as §1, §2

[12] = test system: T24 cells; assay: CCK-8 anti-proliferative assay, T24; conditions: Homo sapiens, T-24; Table 6; co-incubated 48 h; read-out: Anti-proliferative activity (IC50 ± standard deviation) T24
Text: as §1, §2

[13] = test system: UM-UC-3 cells; assay: CCK-8 anti-proliferative assay, UM-UC-3; conditions: Homo sapiens, UMUC3; Table 6; co-incubated 48 h; read-out: Anti-proliferative activity (IC50 ± standard deviation) UM-UC-3
Description: as §3
as §2, with “The reaction was terminated, and OD (optical density) values at 450 nm were measured using a microplate reader.” left out

[14] = test system: immortalized ureteral epithelial cells (SV-HUC-1); assay: CCK-8 anti-proliferative assay, normal cells SV-HUC-1; conditions: Homo sapiens, SV-HUC1; Table 9; normal cells; co-incubated 48 h; read-out: Anti-proliferative activity (IC50 ± standard deviation) SV-HUC-1
Description: as §3
as §2, with “The reaction was terminated, and OD (optical density) values at 450 nm were measured using a microplate reader.” left out

[15] = test system: SK-OV-3 cells; assay: CCK-8 anti-proliferative assay, SK-OV-3; conditions: Homo sapiens, SK-OV-3; Table 9; co-incubated 48 h; read-out: Anti-proliferative activity (IC50 ± standard deviation) SK-OV-3
Description: as §3
as §2, with “The reaction was terminated, and OD (optical density) values at 450 nm were measured using a microplate reader.” left out

IC50 [1] [µM] | IC50 [3] [µM] | IC50 [5] [µM] | IC50 [6] [µM] | IC50 [7] [µM] | IC50 [12] [µM] | IC50 [15] [µM] | SMILES | IC50 [2] [µM] | IC50 [4] [µM] | IC50 [8] [µM] | IC50 [9] [µM] | IC50 [10] [µM] | IC50 [11] [µM] | IC50 [13] [µM] | IC50 [14] [µM]
> 30 | 16.5 ± 0.92 | 18.4 ± 0.98 | 25.8 ± 2.53 | > 30 | 11.5 ± 0.66 | 9.73 ± 0.69 | COc1cc2ncnc(NCc3cccc(NC(=O)Nc4cccc(C)c4)c3)c2cc1OCCCCCCN1CCN(CCN2CCOCC2)CC1 [Compound 8-1c, N-(3-(((7-methoxy-6-((6-(4-(2-morpholinoethyl)piperazin-1-yl)hexyl)oxy)quinazolin-4-yl)amino)methyl)phenyl)-N′-(3-methylphenyl)urea] | 7.27 ± 0.51 | 13 ± 0.85 | 7.34 ± 0.65 | 13 ± 0.84 | 6.05 ± 0.63 | 13.9 ± 0.73 | 14.1 ± 0.82 | 16 ± 0.81
27.4 ± 2.24 | 13.7 ± 0.73 | 15.8 ± 0.84 | > 30 | 16.1 ± 0.71 | 6.59 ± 0.79 | 9.26 ± 0.87 | COc1cc2ncnc(NCc3cccc(NC(=O)Nc4ccc(C)cc4)c3)c2cc1OCCCCCCN1CCN(CCN2CCOCC2)CC1 [Compound 8-1d, N-(3-(((7-methoxy-6-((6-(4-(2-morpholinoethyl)piperazin-1-yl)hexyl)oxy)quinazolin-4-yl)amino)methyl)phenyl)-N′-(4-methylphenyl)urea] | 7.04 ± 0.48 | 7.72 ± 0.66 | 7.73 ± 0.49 | 8.62 ± 0.53 | 5.89 ± 0.57 | 12.6 ± 0.92 | 13.2 ± 0.77 | 12.8 ± 0.66
13.1 ± 0.78 | 10.8 ± 0.52 | 26.4 ± 2.59 | 20.3 ± 1.88 | 23 ± 0.99 | 24.8 ± 0.62 | 6.38 ± 0.51 | CCc1ccccc1NC(=O)Nc1cccc(CNc2ncnc3cc(OC)c(OCCCCCCN4CCN(CCN5CCOCC5)CC4)cc23)c1 [Compound 8-1g, N-(3-(((7-methoxy-6-((6-(4-(2-morpholinoethyl)piperazin-1-yl)hexyl)oxy)quinazolin-4-yl)amino)methyl)phenyl)-N′-(2-ethylphenyl)urea] | 12.7 ± 0.74 | 22.5 ± 0.79 | 10.9 ± 0.93 | 19.3 ± 0.74 | 19.7 ± 0.98 | > 30 | 26 ± 1.79 | > 30
9.63 ± 0.92 | 7.61 ± 0.76 | 12.3 ± 0.84 | 8.49 ± 0.88 | 8.03 ± 0.62 | 6.89 ± 0.48 | 6.19 ± 0.44 | CCc1cccc(CC)c1NC(=O)Nc1cccc(CNc2ncnc3cc(OC)c(OCCCCCCN4CCN(CCN5CCOCC5)CC4)cc23)c1 [Compound 8-1h, N-(3-(((7-methoxy-6-((6-(4-(2-morpholinoethyl)piperazin-1-yl)hexyl)oxy)quinazolin-4-yl)amino)methyl)phenyl)-N′-(2,6-diethylphenyl)urea] | 4.67 ± 0.38 | 5.41 ± 0.36 | 4.92 ± 0.46 | 4.46 ± 0.24 | 5.64 ± 0.39 | 23.2 ± 0.76 | 8.74 ± 0.52 | 17.8 ± 1.59
14.4 ± 0.67 | 13.3 ± 1.05 | 16 ± 0.64 | 11.5 ± 0.76 | 14.1 ± 0.89 | 16.3 ± 0.81 | 7.68 ± 0.55 | COc1cc2ncnc(NCc3cccc(NC(=O)Nc4ccc(C(C)C)cc4)c3)c2cc1OCCCCCCN1CCN(CCN2CCOCC2)CC1 [Compound 8-1i, N-(3-(((7-methoxy-6-((6-(4-(2-morpholinoethyl)piperazin-1-yl)hexyl)oxy)quinazolin-4-yl)amino)methyl)phenyl)-N′-(4-isopropylphenyl)urea] | 10.6 ± 0.89 | 10.3 ± 0.97 | 11.1 ± 0.95 | 9.31 ± 0.97 | 22.4 ± 1.82 | 20.3 ± 1.63 | 10 ± 0.52 | 19.3 ± 1.39
> 30 | 13 ± 0.97 | 21.4 ± 1.96 | 15.2 ± 0.93 | 21.3 ± 1.24 | 10.4 ± 0.92 | 7.72 ± 0.59 | COc1cc2ncnc(NCc3cccc(NC(=O)Nc4ccc(F)cc4)c3)c2cc1OCCCCCCN1CCN(CCN2CCOCC2)CC1 [Compound 8-1l, N-(3-(((7-methoxy-6-((6-(4-(2-morpholinoethyl)piperazin-1-yl)hexyl)oxy)quinazolin-4-yl)amino)methyl)phenyl)-N′-(4-fluorophenyl)urea] | 7.29 ± 0.54 | 15.8 ± 0.95 | 7.03 ± 0.48 | 9.03 ± 0.61 | 6.85 ± 0.57 | 22.8 ± 0.94 | 16.8 ± 0.88 | 15.9 ± 0.86
23.2 ± 2.03 | 7.79 ± 0.44 | 15 ± 0.93 | 14.8 ± 0.86 | 13.8 ± 0.77 | 8.82 ± 0.49 | 12.8 ± 0.42 | COc1cc2ncnc(NCc3cccc(NC(=O)Nc4ccccc4Cl)c3)c2cc1OCCCCCCN1CCN(CCN2CCOCC2)CC1 [Compound 8-1m, N-(3-(((7-methoxy-6-((6-(4-(2-morpholinoethyl)piperazin-1-yl)hexyl)oxy)quinazolin-4-yl)amino)methyl)phenyl)-N′-(2-chlorophenyl)urea] | 7.83 ± 0.66 | 6.06 ± 0.58 | 5.69 ± 0.65 | 5.62 ± 0.51 | 7.21 ± 0.66 | 14 ± 0.78 | 11.1 ± 0.74 | 12 ± 0.57
> 30 | 7.73 ± 0.82 | 11.8 ± 0.63 | 9.33 ± 0.71 | 12.4 ± 0.89 | 7.31 ± 0.55 | 9.34 ± 0.98 | COc1cc2ncnc(NCc3cccc(NC(=O)Nc4ccc(Cl)c(Cl)c4)c3)c2cc1OCCCCCCN1CCN(CCN2CCOCC2)CC1 [Compound 8-1o, N-(3-(((7-methoxy-6-((6-(4-(2-morpholinoethyl)piperazin-1-yl)hexyl)oxy)quinazolin-4-yl)amino)methyl)phenyl)-N′-(3,4-dichlorophenyl)urea] | 6.83 ± 0.52 | 5.34 ± 0.39 | 5.89 ± 0.47 | 5.99 ± 0.43 | 6.88 ± 0.49 | 9.93 ± 0.53 | 5.84 ± 0.53 | 10.7 ± 0.51
